Laboratory results as given in patent publication US20050209278A1, “Piperidinyl- and piperazinyl-sulfonylmethyl hydroxamic acids and their use as protease inhibitors” (priority 2002, published 2005).
Values joined by “and” are separate entries in the source; they are usually repeats but may differ in a detail not shown here. Identical values can stand only once.

Legend:
[1] = biological target: T1, MMP-9 (Homo sapiens, UniProt P14780); assay: In vitro MMP inhibition, IC50 determination (fluorogenic substrate I); type: biochemical; details: value in parentheses; read-out: MMP-9 (IC-50)
T1 construct: made in house; host or cells: MMP-9-transfected HT1080 cells (spent media)
T1 sequence (P14780 107-707 limits assumed): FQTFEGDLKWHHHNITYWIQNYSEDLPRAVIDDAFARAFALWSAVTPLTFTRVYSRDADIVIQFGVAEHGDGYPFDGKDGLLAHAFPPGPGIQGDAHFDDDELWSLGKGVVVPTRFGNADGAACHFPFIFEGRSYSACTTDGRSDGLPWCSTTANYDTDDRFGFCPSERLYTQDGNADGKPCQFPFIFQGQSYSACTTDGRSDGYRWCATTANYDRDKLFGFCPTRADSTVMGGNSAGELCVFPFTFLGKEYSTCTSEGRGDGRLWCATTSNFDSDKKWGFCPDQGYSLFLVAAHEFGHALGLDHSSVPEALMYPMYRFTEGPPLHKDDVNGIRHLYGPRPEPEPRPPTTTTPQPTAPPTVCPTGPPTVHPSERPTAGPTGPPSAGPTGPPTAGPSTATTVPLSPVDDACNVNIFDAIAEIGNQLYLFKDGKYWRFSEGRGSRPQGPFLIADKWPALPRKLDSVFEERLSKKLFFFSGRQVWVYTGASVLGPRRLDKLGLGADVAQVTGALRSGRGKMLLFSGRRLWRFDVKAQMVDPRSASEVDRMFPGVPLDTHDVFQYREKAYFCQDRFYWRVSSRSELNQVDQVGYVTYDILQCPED
Description: Several hydroxamic acids and salts thereof were analyzed in in vitro assays to determine their ability to inhibit the MMP cleavage of peptide substrates. […] and IC50 constants were calculated from the assayed hydroxamic acid-MMP interactions. Human recombinant MMP-1, MMP-2, MMP-9, MMP-13, and MMP-14 were used in this assay. All enzymes were prepared in Assignee's laboratories following usual laboratory procedures. Protocols for the preparation and use of these enzymes are available in the scientific literature. See, e.g., Enzyme Nomenclature (Academic Press, San Diego, Calif., 1992) (and the citations therein). See also, Freije et al., “Molecular cloning and expression of collagenase-3, a novel human matrix metalloproteinase produced by breast carcinomas,” J Biol. Chem., 269(24), 16766-16773 (1994). The MMP-9 proenzyme was purified by gelatin Sepharose chromatography from spent media of MMP-9-transfected HT1080 cells provided by Dr. Howard Welgus of Washington University (St. Louis, Mo.). All MMPs were activated using 4-aminophenylmercuric acetate (“APMA”, Sigma Chemical, St. Louis, Mo.) or trypsin. MMP-9 also was activated using human recombinant MMP-3 (purified in Assignee's laboratory following standard cloning and purification techniques). […] Substrate (I) was purchased from Baychem (Redwood City, Calif.), and substrate II was prepared Assignee's laboratory. Substrate I was used in the IC50 determination assays, while substrate II was used in the Ki determination assays. In the absence of MMP inhibitory activity, either substrate is cleaved at the Gly-Leu peptide bond. […] The stock solutions of the assayed hydroxamic acids (or salts thereof) were prepared in 1% dimethyl sulfoxide (DMSO). […] The experiment controls contained the same amount of Buffer A/DMSO as the assayed sample, but contained no hydroxamic acid (or salt thereof). The assays from which the IC50 determinations were made were performed as follows. […] Louis, Mo.). The assayed hydroxamic acid samples were incubated in MicrofluorTM White Plates (Dynatech, Chantilly, Va.) and analyzed on a Perkin Elmer […] plate reader (Norwalk, Conn.). The excitation wavelength was 328 nm, and the emission wavelength-415 nm. […] As stated in the previous paragraph, samples containing varying concentrations of the same assayed hydroxamic acid were prepared. Inhibition was measured as a reduction in fluorescent intensity as a function of MMP inhibitor concentration. […] All values in Table 2 are given in nM units. The IC50 measurements are in parenthesis.

[2] = biological target: T2, MMP-14 (Homo sapiens, UniProt P50281); assay: as above; type: biochemical; details: value in parentheses; read-out: MMP-14 (IC-50)
T2 construct: The catalytic domain enzyme was expressed in E. coli inclusion bodies, solubilized in urea; made in house
Description: Several hydroxamic acids and salts thereof were analyzed in in vitro assays to determine their ability to inhibit the MMP cleavage of peptide substrates. […] and IC50 constants were calculated from the assayed hydroxamic acid-MMP interactions. Human recombinant MMP-1, MMP-2, MMP-9, MMP-13, and MMP-14 were used in this assay. All enzymes were prepared in Assignee's laboratories following usual laboratory procedures. Protocols for the preparation and use of these enzymes are available in the scientific literature. See, e.g., Enzyme Nomenclature (Academic Press, San Diego, Calif., 1992) (and the citations therein). See also, Freije et al., “Molecular cloning and expression of collagenase-3, a novel human matrix metalloproteinase produced by breast carcinomas,” J Biol. Chem., 269(24), 16766-16773 (1994). The MMP-14 full length cDNA was provided by Dr. Gregory Goldberg of Washington University (St. Louis, Mo.). The catalytic domain enzyme was expressed in E. coli inclusion bodies, solubilized in urea, purified on a preparative […] reverse phase HPLC column, and then refolded in the presence of zinc acetate and purified for use. All MMPs were activated using 4-aminophenylmercuric acetate (“APMA”, Sigma Chemical, St. Louis, Mo.) or trypsin. MMP-9 also was activated using human recombinant MMP-3 (purified in Assignee's laboratory following standard cloning and purification techniques). […] Substrate (I) was purchased from Baychem (Redwood City, Calif.), and substrate II was prepared Assignee's laboratory. Substrate I was used in the IC50 determination assays, while substrate II was used in the Ki determination assays. In the absence of MMP inhibitory activity, either substrate is cleaved at the Gly-Leu peptide bond. […] The stock solutions of the assayed hydroxamic acids (or salts thereof) were prepared in 1% dimethyl sulfoxide (DMSO). […] The experiment controls contained the same amount of Buffer A/DMSO as the assayed sample, but contained no hydroxamic acid (or salt thereof). The assays from which the IC50 determinations were made were performed as follows. […] Louis, Mo.). The assayed hydroxamic acid samples were incubated in MicrofluorTM White Plates (Dynatech, Chantilly, Va.) and analyzed on a Perkin Elmer […] plate reader (Norwalk, Conn.). The excitation wavelength was 328 nm, and the emission wavelength-415 nm. […] As stated in the previous paragraph, samples containing varying concentrations of the same assayed hydroxamic acid were prepared. Inhibition was measured as a reduction in fluorescent intensity as a function of MMP inhibitor concentration. […] All values in Table 2 are given in nM units. The IC50 measurements are in parenthesis.

Compound | IC50 [1] [µM] | IC50 [2]
CCCCOc1ccc(N2CCN(S(=O)(=O)C3(C(=O)NO)CCN(c4ccc(C)cc4)CC3)CC2)cc1 [Example 295] | 0.0001 | > 10 µM
CCCCOc1ccc(N2CCN(S(=O)(=O)C3(C(=O)NO)CCN(c4ccc(C)cc4)CC3)CC2)cc1F [Example 296] | 0.116 | > 10 µM
COCCOc1ccc(N2CCN(S(=O)(=O)C3(C(=O)NO)CCN(C4CC4)CC3)CC2)cc1F [Example 297] | 0.0311 | > 10 µM and 6.47 µM
CCCCOc1ccc(N2CCN(S(=O)(=O)C3(C(=O)NO)CCN(CC4CC4)CC3)CC2)cc1 [Example 298] | 0.003 | > 10 µM
CCCCOc1ccc(N2CCN(S(=O)(=O)C3(C(=O)NO)CCN(C4CC4)CC3)CC2)cc1 [Example 301] | 0.0006 | 5.63 µM
C#CCN1CCC(C(=O)NO)(S(=O)(=O)N2CCN(c3ccc(OCCCC)cc3)CC2)CC1 [Example 303] | 0.0003 | 2.24 µM
